Measurements taken from paper doi:10.1101/2023.07.03.547578v2 (bioRxiv, 2023).
Like-named read-outs stand apart in the source and are kept apart here.

Experiments:
RyR2 [1] = biological target: T1, RyR2 (Sus scrofa, UniProt A0A5G2R1W3); details: read-out: IC50, ryanodine binding assay; ref Batiste et al., 2019; cited from earlier work
[2] = tested on: RyR2-mediated spontaneous Ca2+ release in Casq2-/- cardiomyocytes; details: read-out: IC50, intact cardiomyocyte assay; ref Batiste et al., 2019; cited from earlier work
[3] = mice; ref Blackwell et al., 2023; cited from earlier work
Casq2-/- mice [4] = details: ref Blackwell et al., 2023, cited from earlier work
RyR2 [5] = details: ref Ohshiro et al., 2012; cited from earlier work
insect RyR = details: ref Ohshiro et al., 2012; cited from earlier work
RyR2 [6] = biological target: T1, RyR2; experiment: [3H]ryanodine binding assay in cardiac SR vesicles; set-up: species or system porcine
[7] = In vivo pharmacokinetic study; set-up: species or system mouse; details: 3 mg/kg i.p.
Casq2-/- mice [8] = experiment: Catecholamine-induced arrhythmia challenge; type: in vivo, mouse; details: 3 and 30 mg/kg i.p., ECG
Stability in plasma = type: in vitro ADME; details: abstract; method not given
[9] = ref Smith et al., 2021; cited from earlier work

T1 sequence (A0A5G2R1W3 20-4900): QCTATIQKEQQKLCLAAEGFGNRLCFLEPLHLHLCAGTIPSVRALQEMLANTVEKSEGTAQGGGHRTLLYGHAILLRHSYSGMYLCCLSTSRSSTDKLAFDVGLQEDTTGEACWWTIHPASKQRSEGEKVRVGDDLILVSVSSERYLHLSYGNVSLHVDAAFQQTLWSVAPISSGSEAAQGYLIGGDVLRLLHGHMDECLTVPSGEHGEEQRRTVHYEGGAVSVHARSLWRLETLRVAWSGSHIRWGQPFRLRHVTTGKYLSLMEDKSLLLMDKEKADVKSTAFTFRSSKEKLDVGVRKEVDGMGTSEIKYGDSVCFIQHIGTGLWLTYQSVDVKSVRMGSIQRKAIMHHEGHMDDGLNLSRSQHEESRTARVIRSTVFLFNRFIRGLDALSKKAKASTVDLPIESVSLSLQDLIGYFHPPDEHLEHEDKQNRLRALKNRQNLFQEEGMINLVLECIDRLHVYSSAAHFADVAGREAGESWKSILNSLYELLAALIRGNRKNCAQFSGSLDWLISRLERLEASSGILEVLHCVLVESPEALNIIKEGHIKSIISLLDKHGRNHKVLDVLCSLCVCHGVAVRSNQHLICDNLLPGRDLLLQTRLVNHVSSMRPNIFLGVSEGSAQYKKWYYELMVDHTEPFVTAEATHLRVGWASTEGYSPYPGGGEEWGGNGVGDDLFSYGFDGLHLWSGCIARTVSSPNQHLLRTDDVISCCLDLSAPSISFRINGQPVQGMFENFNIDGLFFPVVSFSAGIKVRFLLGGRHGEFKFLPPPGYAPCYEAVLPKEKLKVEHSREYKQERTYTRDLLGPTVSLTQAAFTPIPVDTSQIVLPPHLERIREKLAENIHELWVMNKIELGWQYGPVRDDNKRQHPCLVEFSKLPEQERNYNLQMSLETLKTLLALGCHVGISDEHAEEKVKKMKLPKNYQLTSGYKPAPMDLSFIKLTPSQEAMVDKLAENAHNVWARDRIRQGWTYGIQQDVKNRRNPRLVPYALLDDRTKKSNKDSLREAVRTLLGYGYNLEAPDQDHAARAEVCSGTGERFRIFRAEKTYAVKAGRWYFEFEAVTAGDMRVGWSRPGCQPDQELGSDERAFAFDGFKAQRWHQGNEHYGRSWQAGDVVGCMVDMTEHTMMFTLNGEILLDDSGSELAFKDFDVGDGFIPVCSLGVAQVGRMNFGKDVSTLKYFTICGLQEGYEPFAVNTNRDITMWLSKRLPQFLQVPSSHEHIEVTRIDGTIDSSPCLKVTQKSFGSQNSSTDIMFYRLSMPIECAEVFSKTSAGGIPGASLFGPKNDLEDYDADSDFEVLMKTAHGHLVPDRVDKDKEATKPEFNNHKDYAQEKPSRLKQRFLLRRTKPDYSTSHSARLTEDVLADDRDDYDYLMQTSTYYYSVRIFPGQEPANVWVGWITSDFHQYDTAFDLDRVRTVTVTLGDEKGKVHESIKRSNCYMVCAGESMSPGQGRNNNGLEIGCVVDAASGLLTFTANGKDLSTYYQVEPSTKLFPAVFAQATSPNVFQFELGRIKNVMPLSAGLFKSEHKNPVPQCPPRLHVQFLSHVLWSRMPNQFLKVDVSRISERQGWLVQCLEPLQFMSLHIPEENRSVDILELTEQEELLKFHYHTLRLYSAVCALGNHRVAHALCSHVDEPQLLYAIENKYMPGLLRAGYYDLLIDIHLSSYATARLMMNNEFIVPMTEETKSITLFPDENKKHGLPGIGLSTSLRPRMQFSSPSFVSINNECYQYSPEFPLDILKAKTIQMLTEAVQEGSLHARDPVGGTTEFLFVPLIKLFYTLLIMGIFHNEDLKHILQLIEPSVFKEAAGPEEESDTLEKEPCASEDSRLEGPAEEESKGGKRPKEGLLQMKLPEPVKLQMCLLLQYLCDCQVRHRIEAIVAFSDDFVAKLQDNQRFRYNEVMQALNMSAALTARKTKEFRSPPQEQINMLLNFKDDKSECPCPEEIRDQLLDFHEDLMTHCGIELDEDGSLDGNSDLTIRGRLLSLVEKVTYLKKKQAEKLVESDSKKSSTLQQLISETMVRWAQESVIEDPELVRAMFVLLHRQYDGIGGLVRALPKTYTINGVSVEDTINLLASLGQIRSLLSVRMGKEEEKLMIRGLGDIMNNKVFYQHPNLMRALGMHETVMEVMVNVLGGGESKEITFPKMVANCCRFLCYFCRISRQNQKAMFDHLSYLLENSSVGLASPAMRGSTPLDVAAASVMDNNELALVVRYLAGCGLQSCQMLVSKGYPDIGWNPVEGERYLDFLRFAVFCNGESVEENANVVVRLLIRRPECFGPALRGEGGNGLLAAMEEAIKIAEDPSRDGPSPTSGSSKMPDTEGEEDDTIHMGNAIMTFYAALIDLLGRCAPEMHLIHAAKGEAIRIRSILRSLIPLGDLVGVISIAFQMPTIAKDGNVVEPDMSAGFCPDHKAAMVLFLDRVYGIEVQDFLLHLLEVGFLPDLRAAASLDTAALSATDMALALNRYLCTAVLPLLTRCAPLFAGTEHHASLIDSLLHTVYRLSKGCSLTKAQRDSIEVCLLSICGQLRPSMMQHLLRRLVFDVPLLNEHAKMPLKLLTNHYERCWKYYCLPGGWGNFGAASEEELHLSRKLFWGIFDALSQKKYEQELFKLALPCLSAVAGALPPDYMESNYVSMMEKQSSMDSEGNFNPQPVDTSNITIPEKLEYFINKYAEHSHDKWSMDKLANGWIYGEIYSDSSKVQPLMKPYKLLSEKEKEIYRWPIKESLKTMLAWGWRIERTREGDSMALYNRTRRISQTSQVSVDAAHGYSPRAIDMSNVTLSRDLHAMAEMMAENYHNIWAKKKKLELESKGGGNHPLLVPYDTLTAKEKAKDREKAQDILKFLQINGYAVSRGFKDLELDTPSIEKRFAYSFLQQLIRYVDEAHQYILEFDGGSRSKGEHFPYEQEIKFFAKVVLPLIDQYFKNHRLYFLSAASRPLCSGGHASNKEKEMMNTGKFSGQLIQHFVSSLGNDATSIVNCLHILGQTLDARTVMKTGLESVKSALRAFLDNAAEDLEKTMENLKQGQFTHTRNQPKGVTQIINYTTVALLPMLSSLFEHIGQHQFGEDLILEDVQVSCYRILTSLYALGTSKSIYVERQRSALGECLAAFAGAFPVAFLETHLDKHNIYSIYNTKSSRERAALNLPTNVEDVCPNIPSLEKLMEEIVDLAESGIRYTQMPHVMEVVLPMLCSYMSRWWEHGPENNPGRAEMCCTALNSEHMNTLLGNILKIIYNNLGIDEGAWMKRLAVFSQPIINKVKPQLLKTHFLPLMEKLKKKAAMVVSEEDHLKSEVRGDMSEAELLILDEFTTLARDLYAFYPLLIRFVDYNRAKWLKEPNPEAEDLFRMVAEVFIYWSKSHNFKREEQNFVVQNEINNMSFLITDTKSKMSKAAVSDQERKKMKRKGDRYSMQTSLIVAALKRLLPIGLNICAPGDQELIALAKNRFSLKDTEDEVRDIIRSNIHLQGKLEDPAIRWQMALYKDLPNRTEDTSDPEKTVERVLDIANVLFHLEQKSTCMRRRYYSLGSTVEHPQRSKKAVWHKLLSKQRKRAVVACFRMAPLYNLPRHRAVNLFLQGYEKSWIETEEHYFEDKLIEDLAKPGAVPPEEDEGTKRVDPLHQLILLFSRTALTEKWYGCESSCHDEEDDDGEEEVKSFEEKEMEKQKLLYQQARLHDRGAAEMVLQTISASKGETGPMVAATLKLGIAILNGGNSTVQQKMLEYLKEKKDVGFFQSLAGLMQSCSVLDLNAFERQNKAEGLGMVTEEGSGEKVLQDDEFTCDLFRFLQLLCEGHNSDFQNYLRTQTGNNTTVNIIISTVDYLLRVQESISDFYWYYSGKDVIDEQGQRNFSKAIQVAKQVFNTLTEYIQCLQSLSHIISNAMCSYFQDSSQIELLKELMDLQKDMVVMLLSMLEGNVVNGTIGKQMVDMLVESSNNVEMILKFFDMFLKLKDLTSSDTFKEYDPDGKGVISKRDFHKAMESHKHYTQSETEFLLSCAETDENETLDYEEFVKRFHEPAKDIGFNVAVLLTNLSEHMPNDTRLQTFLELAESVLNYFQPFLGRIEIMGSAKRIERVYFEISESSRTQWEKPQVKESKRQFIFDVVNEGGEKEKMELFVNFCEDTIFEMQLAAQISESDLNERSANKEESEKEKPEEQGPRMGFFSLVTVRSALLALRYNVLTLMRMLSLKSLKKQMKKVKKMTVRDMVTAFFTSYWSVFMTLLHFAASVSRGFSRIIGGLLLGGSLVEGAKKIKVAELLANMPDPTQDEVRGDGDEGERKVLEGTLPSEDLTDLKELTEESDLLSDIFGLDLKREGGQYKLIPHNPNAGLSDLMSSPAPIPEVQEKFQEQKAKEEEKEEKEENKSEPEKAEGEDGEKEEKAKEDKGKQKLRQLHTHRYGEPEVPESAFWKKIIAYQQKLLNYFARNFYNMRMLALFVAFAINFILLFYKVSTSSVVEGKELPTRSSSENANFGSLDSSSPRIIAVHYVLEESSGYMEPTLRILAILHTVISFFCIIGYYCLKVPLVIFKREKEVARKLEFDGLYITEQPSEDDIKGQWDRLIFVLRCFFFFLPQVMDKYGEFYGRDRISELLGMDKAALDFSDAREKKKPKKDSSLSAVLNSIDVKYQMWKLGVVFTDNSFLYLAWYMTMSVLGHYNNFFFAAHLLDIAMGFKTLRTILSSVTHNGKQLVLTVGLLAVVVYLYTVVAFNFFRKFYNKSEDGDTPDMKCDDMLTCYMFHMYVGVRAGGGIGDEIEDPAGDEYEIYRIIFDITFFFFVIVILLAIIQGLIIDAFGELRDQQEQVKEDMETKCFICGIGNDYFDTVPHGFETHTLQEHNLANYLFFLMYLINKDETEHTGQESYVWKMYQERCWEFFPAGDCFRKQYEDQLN

ent-(+)-verticilide [ent-1]
IC50 (RyR2 [1]): 100 nM
IC50 [2]: 100 nM
half-life (t1/2) [3]: 6.92 h
VT incidence (Casq2-/- mice [4]; 30 mg/kg, same arrhythmia induction protocol): ~35%
antiarrhythmic efficacy in vivo (Casq2-/- mice [4]; single dose study at 3 and 30 mg/kg i.p.): had antiarrhythmic efficacy

verticilide B1
activity against RyR2 (RyR2 [5]): not active
activity against insect RyR (insect RyR): not active

CCCCC[C@@H]1OC(=O)[C@@H](C)N(C)C(=O)[C@H](CCCCC)OC(=O)[C@@H](C)N(C)C(=O)[C@H](CCCCC)OC(=O)[C@@H](C)N(C)C1=O (single isomer, unassigned) [ent-B1, ent-verticilide B1]
IC50 (RyR2 [6]): 1930 nM
maximal inhibition of [3H]ryanodine binding (RyR2 [6]; incomplete maximal inhibition vs DMSO): approximately 30%
clinical observation during the PK study ([7]; CD1 mice, up to 480 min): no abnormality
time of peak plasma concentration ([7]; mice, plasma): 10 min
elimination half-life (t1/2) ([7]; mice, plasma, mean): 0.757 h
QRS width (Casq2-/- mice [8]): No changes
heart rate (Casq2-/- mice [8]): No changes
stability in plasma (Stability in plasma): stable
lipophilicity relative to ent-1 [9]: loss of lipophilicity
